Test results reported in US12187709B2 (Genentech, Inc., priority 2021, dated 2025).

Key:
[1] = molecular target: c-Cbl (residues 47-435) (Homo sapiens (Human), UniProt P22681); experiment: c-Cbl SPR assay; format: binding; settings: 20° C.
Procedure: (§1) Affinity of binding to Cbl-b and c-Cbl for compounds described herein was assessed by surface plasmon resonance (SPR) according to the following protocol.
(§2) A surface capture range of 1300-1500 RU of protein was used for both isoforms.
(§3) For SPR measurements, 6 concentrations with 2 fold serial dilution were measured with blanks flanking each series for double referencing. […] SPR sensorgrams were recorded in multi-cycle kinetics format, with a contact time of 60 seconds and a flow rate of 40 μl/min, the dissociation time was varied between 120-1200 seconds aiming for 4-5 half-lives of the measured interaction.
(§4) Kinetic and affinity parameters were extracted from the multicycle kinetics data fitting to a 1:1 binding model using the Biacore™ Incyte evaluation software (Cytiva).
(§5) Chaser assay utilize a single cycle kinetics SPR experiment with a contact time of 120 seconds, a flow rate of 50 μl/min and a dissociation time of 450 seconds. Single cycle kinetics titration utilized an initial blank injection and 5 concentrations with 2 fold serial dilution with a maximum concentration of 500 nM, blanked to a preceding 6 point blank single cycle kinetics injection for double referencing.
(§6) The kd is measured independently by determining the percentage unoccupied compound binding site over time by measuring the binding of a chaser compound measured by SPR.
(§7) Chaser binding was measured by a multicycle kinetics SPR experiment using a contact time of 20 seconds, a flow rate of 30 μl/min, and a dissociation time of 120 seconds. […] The % compound bound at a given time was determined by comparison to a single injection of chaser preceding the single cycle kinetics titration defined below. % Compound Bound=(1−(RUT/RUT0))*100
(§8) The % compound bound is plotted against time in seconds and fit to a single exponential, where the exponent represents the kd of the compound-protein complex. The single cycle kinetics experiment of the compound is then fit with a fixed kd determined using the chaser.

[2] = molecular target: Cbl-b (Homo sapiens (Human), UniProt Q13191); experiment: Cbl-b LCK Ub TR-FRET assay (Cbl-b Lck HTRF); format: biochemical; settings: for IC50: Cbl-b LCK Ub TR-FRET; for fold-selectivity (Cbl-b over C-cbl) / (fold-selectivity) Cbl-b and C-Cbl Selectivity: ratio C-cbl Lck HTRF IC50 / Cbl-b Lck HTRF IC50
Procedure, shortened: (§9)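 Detection reagents added, brief spin, 20 min RT. IC50 fit normalized to no-LCK (low) and DMSO (high) controls.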

[3] = molecular target: Human Cbl-b (residues 40-426) (Homo sapiens (Human), UniProt Q13191); experiment: Cbl-b SPR assay; format: binding; settings: for Fold of selectivity: C-cbl SPR Kd vs Cbl-b SPR Kd; for Kd: SPR, 20° C.
Procedure: as §1, §2, §3, §4, §5, §6, §7, §8

[4] = molecular target: c-Cbl (Homo sapiens (Human), UniProt P22681); experiment: C-Cbl LCK Ub TR-FRET assay (C-cbl Lck HTRF); format: biochemical
Procedure, shortened: as §9

Sequence of c-Cbl (P22681 47-435): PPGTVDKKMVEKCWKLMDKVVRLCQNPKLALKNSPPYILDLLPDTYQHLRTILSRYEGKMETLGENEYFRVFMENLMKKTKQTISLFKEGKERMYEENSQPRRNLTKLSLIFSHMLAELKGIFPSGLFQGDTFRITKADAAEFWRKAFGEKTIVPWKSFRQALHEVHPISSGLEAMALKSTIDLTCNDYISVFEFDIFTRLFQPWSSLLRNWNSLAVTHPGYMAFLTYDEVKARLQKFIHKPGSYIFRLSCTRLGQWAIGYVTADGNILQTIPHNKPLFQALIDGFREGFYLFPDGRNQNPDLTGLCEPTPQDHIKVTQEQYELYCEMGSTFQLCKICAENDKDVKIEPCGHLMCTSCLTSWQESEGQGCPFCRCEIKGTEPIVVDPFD
Sequence of c-Cbl (residues 47-435) (P22681 47-435): as above
Sequence of Human Cbl-b (residues 40-426) (Q13191 40-426): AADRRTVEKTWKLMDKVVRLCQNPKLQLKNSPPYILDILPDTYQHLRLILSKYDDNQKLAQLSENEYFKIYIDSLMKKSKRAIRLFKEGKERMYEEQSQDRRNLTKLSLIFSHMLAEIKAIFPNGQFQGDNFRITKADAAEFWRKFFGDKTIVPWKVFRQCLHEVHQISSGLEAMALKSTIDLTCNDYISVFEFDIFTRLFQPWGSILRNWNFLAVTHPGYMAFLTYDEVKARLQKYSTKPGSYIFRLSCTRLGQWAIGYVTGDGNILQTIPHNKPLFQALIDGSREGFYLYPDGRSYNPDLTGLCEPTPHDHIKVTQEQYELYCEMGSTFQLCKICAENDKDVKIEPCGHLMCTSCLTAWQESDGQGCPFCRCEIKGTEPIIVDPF
Sequence of Cbl-b (Q13191 40-426): as above

Row | Structure (SMILES) | Kd [1] [µM] | IC50 [2] [µM] | fold-selectivity (Cbl-b over C-cbl) [2] | Fold of selectivity [3] [×] | Kd [3] [µM] | IC50 [4] [µM] | IC50 ([2]; Example 121) [µM] | (fold-selectivity) Cbl-b and C-Cbl Selectivity [2] [x]
1 | CO[C@H]1C[C@](c2cccc(N3Cc4c(cc(CNC5(C)CCC5)cc4C(F)F)C3=O)c2)(c2nncn2C)C1 [Compound 117, 4-(difluoromethyl)-2-(3-((1r,3r)-3-methoxy-1-(4-methyl-4H-1,2,4-triazol-3-yl)cyclobutyl)phenyl)-6-(((1-methylcyclobutyl)amino)methyl)isoindolin-1-one] | 0.053 | 0.012 | 5.0x | 16 | 0.0032 | 0.06 |  | 
2 | CC(C)[C@H]1CN(C)CCN1Cc1cc(Cl)c2c(c1)C(=O)N(c1cccc(C3(c4nncn4C)CC4(COC4)C3)c1)C2 (single isomer, unassigned) [Compound 204] | 0.015 | 0.013 | 2.3x | 4.1 | 0.0037 | 0.029 |  | 
3 | Cn1cnnc1[C@@](O)(c1cccc(N2Cc3c(cc(CNC4(C)CCC4)cc3C(F)(F)F)C2=O)c1)C1CCC1 (single isomer, unassigned) [Compound 2] | 0.029 | 0.016 | (1.5x) | 13 | 0.0023 | 0.024 |  | 
4 | Cn1cnnc1[C@H](c1cccc(N2Cc3c(cc(CNC4(C)CCC4)cc3C(F)(F)F)C2=O)c1)[C@H]1C[C@@H](C#N)C1 (single isomer, unassigned) [Compound 141] | 0.0094 | 0.0076 | 1.6x | 5.1 | 0.0019 | 0.012 |  | 
5 | Cn1cnnc1[C@@H](c1cccc(N2Cc3c(Cl)cc(CNC4(C)CCC4)cc3C2=O)c1)C1COC1 [Compound 270, (R)-4-chloro-2-(3-((4-methyl-4H-1,2,4-triazol-3-yl)(oxetan-3-yl)methyl)phenyl)-6-(((1-methylcyclobutyl)amino)methyl)-isoindolin-1-one] | 0.016 | 0.011 | 2.3x | 5.9 | 0.0026 | 0.027 |  | 
6 | C[C@@H](NC1(C)CCC1)c1cc(Cl)c2c(c1)C(=O)N(c1cccc([C@]3(c4nncn4C)C[C@H](F)C3)c1)C2 (single isomer, unassigned) [Compound 311] | 0.00025 | 0.004 | 1.1x | 2.5 | 0.0001 | 0.0043 |  | 
7 | C[C@H]1C[C@](c2cccc(N3Cc4c(cc(CNC5(C)CCC5)cc4C(F)(F)F)C3=O)c2)(c2nncn2C)O1 [Compound 125, 2-(3-((2S,4S)-4-methyl-2-(4-methyl-4H-1,2,4-triazol-3-yl)oxetan-2-yl)phenyl)-6-(((1-methylcyclobutyl)amino)methyl)-4-(trifluoromethyl)isoindolin-1-one] | 1.5 | 0.41 | 5.7x | 11 | 0.13 | 2.3 |  | 
8 | CO[C@H]1C[C@](c2cc(NC(C)C)cc(N3Cc4c(cc(CNC5(C)CCC5)cc4C(F)(F)F)C3=O)c2)(c2nncn2C)C1 [Compound 215, 2-(3-(isopropylamino)-5-((1r,3r)-3-methoxy-1-(4-methyl-4H-1,2,4-triazol-3-yl)cyclobutyl)phenyl)-6-(((1-methylcyclobutyl)amino)methyl)-4-(trifluoromethyl)isoindolin-1-one] | 0.007 | 0.0094 | 1.3x | 4.1 | 0.0017 | 0.012 |  | 
9 | Cn1cnnc1[C@@H](c1cccc(N2Cc3c(cc(CNC4(C)CCC4)cc3C(F)(F)F)C2=O)c1)C1CC1 (single isomer, unassigned) [Compound 342] | 0.0012 | 0.0056 | 1.2x | 2.4 | 0.0005 | 0.0066 |  | 
10 | Cn1cnnc1C(c1cccc(N2Cc3c(cc(CNC4(C)CCC4)cc3C(F)(F)F)C2=O)c1)C1CC(F)(F)C1 (racemic) [Compound 145, 2-(3-((3,3-difluorocyclobutyl)(4-methyl-4H-1,2,4-triazol-3-yl)methyl)phenyl)-6-(((1-methylcyclobutyl)amino)methyl)-4-(trifluoromethyl)isoindolin-1-one] | 0.29 | 0.076 | 2.4x | 14 | 0.019 | 0.18 |  | 

Next, values leading:

Row | Kd [1] [µM] | IC50 [2] [µM] | fold-selectivity (Cbl-b over C-cbl) [2] | Fold of selectivity [3] [×] | Kd [3] [µM] | IC50 [4] [µM] | IC50 ([2]; Example 121) [µM] | (fold-selectivity) Cbl-b and C-Cbl Selectivity [2] [x] | Structure (SMILES)
11 | 0.0015 |  |  | 6.0 | 0.00025 | 0.0066 | 0.0042 | 1.6 | Cn1cnnc1[C@]1(c2cccc(N3Cc4c(Cl)cc(CNC5(C)CCC5)cc4C3=O)c2)C[C@@H](Cl)C1 [Compound 451, 4-chloro-2-(3-((1r,3r)-3-chloro-1-(4-methyl-4H-1,2,4-triazol-3-yl)cyclobutyl)phenyl)-6-(((1-methylcyclobutyl)amino)-methyl)isoindolin-1-one]
12 | 4.1 | 2.4 | 4.4x | 3 | 1.3 | 11 |  |  | Cn1cnnc1[C@H](c1cccc(N2Cc3c(cc(CNC4(C)CCC4)cc3C(F)(F)F)C2=O)c1)n1ccnc1 (single isomer, unassigned) [Compound 345]
13 | 0.13 |  |  | 11 | 0.011 | 0.093 | 0.017 | 5.6 | CO[C@H]1C[C@](c2cccc(N3Cc4c(cc(CNC5CC5)cc4C(F)(F)F)C3=O)c2)(c2nncn2C)C1 [Compound 477, 6-((cyclopropylamino)methyl)-2-(3-((1r,3r)-3-methoxy-1-(4-methyl-4H-1,2,4-triazol-3-yl)cyclobutyl)phenyl)-4-(trifluoromethyl)isoindolin-1-one]
14 | 0.063 |  |  | 13 | 0.005 | 0.048 | 0.011 | 4.2 | CO[C@H]1C[C@](c2cccc(N3Cc4c(cc(CNCC5CC5)cc4C(F)(F)F)C3=O)c2)(c2nncn2C)C1 [Compound 415, 6-(((cyclopropylmethyl)amino)methyl)-2-(3-((1r,3r)-3-methoxy-1-(4-methyl-4H-1,2,4-triazol-3-yl)cyclobutyl)phenyl)-4-(trifluoromethyl)isoindolin-1-one]
15 | 4.1 |  |  | 18 | 0.23 | 2.4 | 0.36 | 6.5 | Cn1cnnc1[C@H](c1cccc(N2Cc3c(cc([C@H](NC4(C)CCC4)C4CC4)cc3C(F)(F)F)C2=O)c1)C1COC1 (single isomer, unassigned) [Compound 456]
16 | 0.064 |  |  | 12 | 0.0047 | 0.03 | 0.0073 | 4.1 | CO[C@H]1C[C@](c2cccc(N3Cc4c(cc(CNC5CC(C#N)C5)cc4C(F)(F)F)C3=O)c2)(c2nncn2C)C1 (stereo partly drawn) [Compound 505, 3-(((2-(3-((1r,3r)-3-methoxy-1-(4-methyl-4H-1,2,4-triazol-3-yl)cyclobutyl)phenyl)-3-oxo-7-(trifluoromethyl)isoindolin-5-yl)methyl)amino)cyclobutanecarbonitrile]
17 | 0.11 |  |  | 12 | 0.0085 | 0.11 | 0.018 | 6.7 | COCC1(NCc2cc3c(c(C(F)(F)F)c2)CN(c2cccc([C@]4(c5nncn5C)C[C@H](OC)C4)c2)C3=O)CCC1 [Compound 495, 2-(3-((1r,3r)-3-methoxy-1-(4-methyl-4H-1,2,4-triazol-3-yl)cyclobutyl)phenyl)-6-(((1-(methoxymethyl)cyclobutyl)amino)methyl)-4-(trifluoromethyl)isoindolin-1-one]
18 | 0.012 |  |  | 13 | 0.00087 | 0.011 | 0.0075 | 1.5 | CO[C@H]1C[C@](c2cccc(N3Cc4c(cc(CNCC5CCC5)cc4C(F)(F)F)C3=O)c2)(c2nncn2C)C1 [Compound 416, 6-(((cyclobutylmethyl)amino)methyl)-2-(3-((1r,3r)-3-methoxy-1-(4-methyl-4H-1,2,4-triazol-3-yl)cyclobutyl)phenyl)-4-(trifluoromethyl)isoindolin-1-one]
